# Publication PMC5995184, “Potent anti-leukemic activity of a specific cyclin-dependent kinase 9 inhibitor in mouse models of chronic lymphocytic leukemia” (Oncotarget, 2018)
# System: human CLL cells and human T cells in NSG spleens
# Experiment: Human CLL xenograft in NSG mice, oral LDC526
# Format: in vivo, mouse
# Conditions: for mean weight loss: 75 mg/kg group
# Excerpt: We and others previously established human CLL xenograft models using NOD/SCID and NSG mice, respectively. We chose to use the NSG model for LDC526 experiments since NSG CLL and concomitant T cell engraftment levels are expected to be higher than in the NOD/SCID model. We intravenously injected PBMCs from n=6 CLL patients into n=57 NSG mice and commenced LDC treatment with a 14 day latency according to the experimental set-up outlined in Figure 3A. To study the effect of doses and treatment duration we chose to administer 50 and 75 mg/kg for three days (NSG transplanted with cells originating from n=3 patients) and for five days (NSG transplanted with cells originating from n=3 additional patients). On experimental days 17 and 21 NSG spleens were harvested and the content of human CLL and T cells was determined by cell counting and flow cytometry (Figure 3B). […] Compared to carrier control treatment, numbers of human CLL cells decreased after 3 and 5 days of LDC526 treatment, respectively. However, statistical significance regarding the reduction of human CLL cell numbers was only achieved at the LDC526 75 mg/kg dose level (Figure 3C). […] In order to determine whether there was differential in vivo LDC526 sensitivity of T cell subsets we performed additional staining for human CD4+ and CD8+ T cells present in the spleens of xenografted NSG mice (Figure 4A). […] In contrast, in mice transplanted with cells of n=2 other CLL patients and receiving LDC526 treatment for 5 days we observed a rising CD4/CD8 ratio with increasing LDC526 doses (Figure 4B). This could mean that CD8+ cytotoxic T cells are more susceptible to longer LDC526 exposure (5 versus 3 days) than CD4+ T cells. However, this differential skew within the T cell compartment could also reflect the heterogeneity of T cells derived from different CLL patients. […] A mean weight loss of 1.8% was detectable in mice of the LDC526 75 mg/kg group (day 16). […] Remarkably, human T cell numbers were already decreased at a lower dose level than human CLL cells.
# All mice were bred and housed at the University Hospital Essen animal care facility. TCL1 mice were back-crossed more than 6 generations into the C57BL/6 background and were genotyped as previously described. Age-matched TCL1 wild-type littermates served as controls. Peripheral blood counts were determined with the VetABC analyzer (scil, Viernheim, Germany). Blood smears were Wright-Giemsa stained. For the human CLL xenograft experiments eight to 14-week-old NOD.Cg-Prkdc^scid Il2rg^tm1Wjl/SzJ (NOD/scid/γc^null; NSG) mice were sublethally irradiated (3.25 Gy) 24 hours before transplantation. Freshly isolated 1.0 x 10^8 PBMC suspended in 0.2 ml of RPMI were intravenously transplanted as previously described. For oral administration, LDC526 was diluted in polyethelene glycol (PEG Mn 400, Sigma-Aldrich) and administerd by gavage. Animal experiments were performed in accordance with institutional guidelines approved by the Animal Care Committee of the University Hospital Essen.
# LDC526 [(3-((4-(4-fluoro-2-methoxyphenyl)-1,3,5-triazin-2-yl)amino)phenyl)methane-sulfonamide, molecular weight 389,41 g/mol, Figure 1A] was provided as powder (LDC526 synthesis, supplementary methods). For oral gavage administration LDC526 was diluted in polyethelene glycol (PEG Mn 400, Sigma-Aldrich, Munich, Germany) followed by sonication for 3 x 5 minutes with intermediate mixing.
# Apoptosis and cell death were determined by using Annexin V (BD Biosciences, Heidelberg, Germany) and 4′,6-Diamidin-2-phenylindol (DAPI, Sigma-Aldrich) staining. Erythrocytes of murine peripheral blood samples were lysed with NH4Cl hypotonic solution. Single cell suspensions of murine spleens were prepared as previously described. Murine cells were stained with antibodies directed against murine CD3 (clone 145-2C11), CD5 (53-7.3) and CD19 (1D3), respectively. […]
# [1] = 75 mg/kg, day 21, representative plot
compound,measurement,setting,value
"COc1cc(F)ccc1-c1ncnc(Nc2cccc(CS(N)(=O)=O)c2)n1 [LDC526, (3-((4-(4-fluoro-2-methoxyphenyl)-1,3,5-triazin-2-yl)amino)phenyl)methane-sulfonamide]",reduction of human CLL cells in NSG spleens compared to carrier control,75 mg/kg for 5 days,77%
same,mean weight loss,day 16,1.8%
same,mean weight loss,day 21,3.6%
same,"flow cytometry gate huCD4, NSG spleen T cells",[1],81.2
same,"flow cytometry gate huCD8, NSG spleen T cells",[1],14.7
same,"flow cytometry gate huCD45+ huCD3, NSG spleen",[1],38.7
same,numbers of splenic human T cells,"50 and 75 mg/kg, 3 or 5 days",significantly reduced at both LDC526 doses
